The source of these data is patent US12252497B2, “Ras inhibitors” (Revolution Medicines, Inc., priority 2021, dated 2025).

One assay has as its system SW1573. Particulars: Canon et al., Nature 575:217-223 (2019); cited from earlier work.
A further assay relates to AsPC-1 (K-Ras G12D). Put plainly: Potency assay: pERK. It counts as cell-based. Particulars: Homo sapiens. The source says:
The purpose of this assay was to measure the ability of test compounds to inhibit K-Ras in cells. Activated K-Ras induces increased phosphorylation of ERK at Threonine 202 and Tyrosine 204 (pERK). This procedure measures a decrease in cellular pERK in response to test compounds. The procedure described below in NCI-H358 cells is applicable to K-Ras G12C.
Note: This protocol may be executed substituting other cell lines to characterize inhibitors of other RAS variants, including, for example, AsPC-1 (K-Ras G12D), Capan-1 (K-Ras G12V), or NCI-H1355 (K-Ras G13C).
NCI-H358 cells were grown and maintained using media and procedures recommended by the ATCC. On the day prior to compound addition, cells were plated in 384-well cell culture plates (40 μl/well) and grown overnight in a 37° C., 5% CO2 incubator. Test compounds were prepared in 10, 3-fold dilutions in DMSO, with a high concentration of 10 mM. On the day of assay, 40 nL of test compound was added to each well of cell culture plate using an Echo550 liquid handler (LabCyte®). Concentrations of test compound were tested in duplicate. After compound addition, cells were incubated 4 hours at 37° C., 5% CO2. Following incubation, culture medium was removed and cells were washed once with phosphate buffered saline.
In some experiments, cellular pERK level was determined using the AlphaLISA SureFire Ultra p-ERK1/2 Assay Kit (PerkinElmer). Cells were lysed in 25 μL lysis buffer, with shaking at 600 RPM at room temperature. Lysate (10 μL) was transferred to a 384-well Opti-plate (PerkinElmer) and 5 μL acceptor mix was added. […] Signal was read on an Envision plate reader (PerkinElmer) using standard AlphaLISA settings. […] Signal was plotted vs. the decadal logarithm of compound concentration, and IC50 was determined by fitting a 4-parameter sigmoidal concentration response model.
In other experiments, cellular pERK was determined by In-Cell Western. […] Signal was plotted vs. the decadal logarithm of compound concentration, and IC50 was determined by fitting a 4-parameter sigmoidal concentration response model.

Where [1] appears, read: ASPC1, read-out: IC50 in the pERK potency assay.

pIC50: −log10 of the molar value. Where two headings read alike, the source gives them in different places. Bounds are passed on as bounds.

Regarding `C=CC(=O)N1CCN(c2nc(=O)n(-c3c(C)ccnc3C(C)C)c3nc(-c4c(O)cccc4F)c(F)cc23)[C@@H](C)C1` [AMG510], the “sensitivity of cell line to RAS inhibitor” value in the assay on SW1573 is on record as “insensitive”.

As usually defined, the pIC50 is −log10 of the IC50, conventionally taken in molar units. Take `CCn1c(-c2cccnc2[C@H](C)OC)c2c3cc(ccc31)-c1cc(cc(C(F)F)c1)C[C@H](NC(=O)[C@H](C1CCCC1)N1CC[C@]3(CCN(C(=O)[C@@H]4N[C@@H]4C4CC4)C3)C1)C(=O)N1CCC[C@H](N1)C(=O)OCC(C)(C)C2` [Example A18]: the pIC50 with AsPC-1 (K-Ras G12D) (ASPC1, AsPC-1 (K-Ras G12D) cells, read-out: IC50 in the pERK potency assay) was less than 5.10.

For the molecule `CCn1c(-c2cccnc2[C@H](C)OC)c2c3cc(ccc31)-c1cc(cc(C(F)F)c1)C[C@H](NC(=O)[C@H](C(C)C)N1CC[C@]3(CCN(C(=O)[C@@H]4N[C@@H]4C4CC4)C3)C1)C(=O)N1CCC[C@H](N1)C(=O)OCC(C)(C)C2` [Example A17], the negative-log IC50 (pIC50) in the assay with AsPC-1 (K-Ras G12D) (setting [1]) is less than 5.10.

As to `CCn1c(-c2cccnc2[C@H](C)OC)c2c3cc(ccc31)-c1csc(n1)C[C@H](NC(=O)[C@H](C1CCCC1)N1CC[C@]3(CCN(C(=O)[C@@]4(C)CN4)C3)C1)C(=O)N1CCC[C@H](N1)C(=O)OCC(C)(C)C2` [Example A5], the negative-log IC50 (pIC50) in the assay on AsPC-1 (K-Ras G12D) (setting [1]) was less than 5.10.
